Measurements taken from patent US11285192B2, “Formulation including a combination of beta-endorphin and adrenocorticotropic hormone” (Adamis Pharmaceuticals Corporation, priority 2019, dated 2022).
Structures can show the parent of a compound that is named as a salt.

Legend:
[1] = system: EAE induced in SJL mice by PLP139-151/CFA immunization; test: EAE late therapeutic model of relapsing-remitting multiple sclerosis, treatment from Day 20 (Example 3); type: in vivo, mouse
Experimental: The effect of administration of two dosages of ACTH and β-endorphin on severity and relapse in EAE was evaluated. EAE was induced in SJL mice by PLP139-151/CFA immunization on Day 0. Treatment was late therapeutic, starting on Day 20 after immunization for each mouse. Mice were observed through the end of the study, Day 42 after immunization. Four groups of 20 mice each received one of the following treatments: vehicle (a negative control); 10 mg/kg oral prednisolone daily (reference treatment); 32 μg ACTH+16 μg endorphin by subcutaneous injection, every 2nd day (low dose); or 64 μg ACTH+32 μg β-endorphin by subcutaneous injection, every 2nd day (high dose).
Mice were injected subcutaneously at four sites in the back with emulsion containing PLP139-151 (native sequence) from HOOKE KIT™ PLP139-151/CFA Emulsion, catalog number EK-0120 (Hooke Laboratories, Lawrence Mass.). Two sites of injection were in the upper back approximately 1 cm caudal of the neck line. The other two sites were in the lower back approximately 2 cm cranial of the base of the tail. The injection volume was 0.05 mL at each site. Even without treatment, most mice recover spontaneously after the first wave of disease. In the SJL model, EAE develops 10-15 days after immunization in 90-100% of immunized mice. The first wave of EAE lasts several days and most mice fully or almost fully recover from this first wave. After a disease-free period, which can last from one day to several months, most mice relapse. During the first 5-7 weeks after immunization, 50-100% of mice will develop a relapse. Each wave of paralysis results in body weight loss at onset, most of which is regained at recovery from the wave. The greatest weight loss is during the first wave of EAE. During the chronic phase of disease, the average EAE body weight is relatively stable, with normal slow increase with age. Since individual mice experience relapses at different times, only a few mice in each group are acutely sick at any given time after the first wave of EAE. Therefore, significant differences in relative body weight between groups are often not found after the first wave of disease in this model. In the vehicle treated group, disease developed as expected for this model. Five (5) mice were euthanized on Day 30 for analysis. Relapse occurred in 7 out of the 15 remaining mice, which were followed to Day 42, with typical course and severity of disease.
100 EAE induced mice were initially considered a single group and were scored daily starting on Day 9 after immunization. […]
Treatment started on the day of group assignment (Day 20 after immunization). […] EAE score was determined daily by a person unaware of both treatment and of previous scores for each mouse. Weight was measured 3 times a week. […]

[2] = per one mg of ACTH, based on rat potency testing; cited from earlier work
[3] = system: EAE induced in SJL mice by PLP139-151/CFA immunization; test: EAE therapeutic model repeated with greater doses, FTY720 reference (Example 4); type: in vivo, mouse
Experimental: To further explore the effect of dosage, the model was repeated, essentially as described in Example 3, using greater doses, specifically 53 μg of ACTH+27 μg of β-endorphin (low dose), and 128 […] of ACTH+64 μg of β-endorphin (high dose). Additionally FTY720 (fingolimod, an FDA-approved drug for the treatment of multiple sclerosis) was used as a reference (positive control) treatment instead of prednisolone, which had not shown strong efficacy in Example 3. FTY720 is one of the most efficacious drugs in both EAE and MS. Immunization was on Day 0, treatment started on Day 20, and the mice were observed through Day 42.
Histological analysis confirmed the clinical findings (Table 9). Histologic readouts were inflammatory foci per section, demyelination (based on anti-myelin basic protein (MBP) staining), and apoptotic cells per section. […] A low number of inflammatory infiltrates confirms absence of both clinical and subclinical inflammation in the CNS. Histological findings in the high dose test group were generally similar to the FTY720 reference group.

[4] = system: EAE induced by PLP139-151/CFA Emulsion PTX; test: EAE prophylactic model, treatment from immunization, with pertussis toxin (Example 5); type: in vivo, mouse; details: 3 mg/kg p.o. daily
Experimental: The efficacy of the combination of ACTH and β-endorphin was also tested in a prophylactic model of EAE. In contrast with the therapeutic model used above, in which treatment is initiated only after EAE onset and recovery from the first wave of the disease, in the prophylactic model, treatment is initiated at the time of immunization and the mice are followed for only 3 weeks. Additionally, pertussis toxin (PTX) is used as an additional adjuvant in the immunization, producing a more sever first wave of disease with slower recovery.
Mice were injected subcutaneously at four sites in the back with 0.05 mL of the emulsion component of HOOKE KIT™ PLP139-151/CFA Emulsion PTX (catalog number EK-2120; Hooke Laboratories, Lawrence Mass.). Two sites of injection were in the upper back approximately 1 cm caudal of the neck line. The other two sites were in the lower back approximately 2 cm cranial of the base of the tail. Two hours later the pertussis toxin component of the kit was administered intraperitoneally. A 30 ng dose of PTX was used to attain optimal disease severity. Mice were administered vehicle or 128 μg ACTH+64 μg β-endorphin by subcutaneous injection every 2nd day, as a negative control and test treatment, respectively. As reference treatment (positive control) mice received 3 mg/kg FTY720 daily by oral administration. There were 12 mice in each of these three groups. The vehicle and test treatment groups were dosed from Day 0 through Day 18 (the last dose in the test treatment group was 88 μg ACTH+44 μg β-endorphin due to lab mishap). The reference treatment group was dosed from Day 0 through Day 19. Clinical scoring was as presented in Table 4 (above) beginning on Day 7 and continuing through Day 20.

[5] = system: EAE induced by PLP139-151/CFA Emulsion PTX; details: past experience with this model; cited from earlier work

Molecule: C[C@]12C=CC(=O)C=C1CC[C@@H]1[C@@H]2[C@@H](O)C[C@@]2(C)[C@H]1CC[C@]2(O)C(=O)CO [Prednisolone, prednisolone]
- Change in body weight versus vehicle control (FIG. 2) ([1]; 10 mg/kg p.o. daily): statistically significant loss of weight versus the vehicle control
- MMS of relapse period ± SD (Days 25-42) ([1]; 10 mg/kg p.o. daily from Day 20, mean maximal score): 2.07
- Iba1 ± SD (% of area) ([1]; 10 mg/kg p.o. daily, microglial activation, % of total spinal cord area): 4.0 ± 1.2 % of area
- Mean clinical score over the course of the study (FIG. 1), compared to vehicle ([1]; reference treatment 10 mg/kg p.o. daily): more moderate benefit

Molecule: ACTH: 39 amino acid peptide, adrenocorticotropic hormone (SYSMEHFRWGKPVGKKRRPVKVYPNGAEDESAEAFPLEF; Corticotropin; UniProt P01189 138-176, looked up)
- Potency of ACTH in units [2]: about 150 units

Molecule: CCCCCCCCc1ccc(CCC(N)(CO)CO)cc1 [FTY720, fingolimod]
- Apoptotic cells/section ± SD ([3]; 1 mg/kg p.o. QD): 0.3 ± 0.4 cells/section
- Demyelination (anti-MBP) ± SD ([3]; 1 mg/kg p.o. QD): 0.1 ± 0.2
- Incidence of relapse ([3]; 1 mg/kg p.o. QD from Day 20): 12.5%
- MMS of relapse period ± SD (Days 20-42) ([3]; 1 mg/kg p.o. QD from Day 20): 1.94 ± 0.50
- End % body weight ± SD ([3]; 1 mg/kg p.o. QD from Day 20, % of starting weight): 97.65 ± 5.3%
- End score ± SD ([3]; 1 mg/kg p.o. QD from Day 20, Day 42): 1.06 ± 0.62
- Inflammatory foci/section ± SD ([3]; 1 mg/kg p.o. QD, spinal cord histology): 0.5 ± 0.4 foci/section
- End % body weight ± SD ([4]; Day 0-19): 98.3% ± 7.8%
- MMS ± SD ([4]; Day 0-19): 0.92 ± 1.16
- End score ± SD ([4]; Day 0-19, Day 20): 0.79 ± 1.01
- Median day of onset (all mice) ([4]; Day 0-19, cannot be calculated if ≤50% of mice developed disease): >20.0^1
- EAE incidence (%) ([4]; Day 0 through Day 19, scored through Day 20): 41.7%

Molecule: COC(=O)/C=C/C(=O)OC [TECFIDERA®, dimethyl fumarate]
- Complete suppression of development of EAE [5]: neither COPAXONE® (glatiramer acetate injection) nor TECFIDERA® (dimethyl fumarate) completely suppressed development of EAE
